“Also recorded” adds a separate entry of the source. Structures can show the parent of a compound that is named as a salt. Where two headings read alike, the source gives them in different places.
Assays:
SARS-CoV-2 [1] = assay: microbe, parasite or virus in culture; type: cell-based; conditions: for IC50: SARS-CoV-2 infected Vero cells; for anti-SARS-CoV-2 activity (in words): Vero cell assay
Vero cells = assay: Cytotoxicity (cell viability) in the SARS-CoV-2 Vero cell assay; conditions: Table 2 test
[2] = human, in vivo
[3] = Cytotoxicity in uninfected, compound-treated MRC5 cells (Cell-Titer Glo); conditions: human
[4] = Cytotoxicity (cell viability) in the SARS-CoV-2 Vero cell assay; conditions: African green monkey, Vero cells
HCoV-229E = assay: Anti-HCoV-229E compound testing in MRC5 cells (Cell-Titer Glo); type: cell-based; conditions: for EC50: Human coronavirus 229E; for activity against HCoV-229E (in words): MRC5 cells
Procedure: (§1) Human lung fibroblast MRC5 cells were cultured in a 96-well plate at 10,000 cells/well in EMEM + 10% FBS overnight. The next day the culture medium was removed from each well and compounds in EMEM + 2% FBS + 0.5% DMSO were added. Each drug was tested on its own 96 well plate. Each plate contained 3 wells of uninfected cells without DMSO, 3 wells of uninfected cells with 0.5% DMSO, 3 wells of infected cells with no DMSO, and 3 wells of infected cells with 0.5% DMSO. Experimental compounds were tested in triplicate at each concentration. Tanespimycin, bortezomib, and homoharringtonine were tested using 2 µM starting concentration, 8-point, threefold serial dilution. After a 1-h pre-incubation with testing compounds, HCoV-229E or HCoV-OC43 viruses at an MOI of 0.01 were added to the culture with compounds for another 1 h. Cell-Titer Glo assay was added after additional incubation time with compounds of interest (HCoV-229E for 96 h and HCoV-OC43 for 120 h). Assay readout was performed using luminescence measurement on a Tecan Spark plate reader.
(§2) CC50 values were determined by applying nonlinear fit of luminescence readouts from uninfected, compound-treated wells against compound concentration. Likewise, EC50 values were determined by nonlinear fit of luminescence readouts from virus-infected, compound-treated wells. Nonlinear regression models were applied for derivation of EC50 and CC50 values respectively, based on built-in equations of Prism Version 8.2.1 (GraphPad Software, San Diego, CA). SI calculated as the ratio of CC50 to EC50.

HCoV-OC43 = assay: Anti-HCoV-OC43 compound testing in MRC5 cells (Cell-Titer Glo); type: cell-based; conditions: for activity against HCoV-OC43 (in words): MRC5 cells
Procedure: as §1, §2

in vitro = conditions: African green monkey, Vero cells
[5] = Clinical dosing estimation of compounds (clinical exposure, Cmax); conditions: calculated from published Cmax and molecular weight
SARS-CoV-2 [6] = conditions: read-out: reported IC50; cited from earlier work
SARS-CoV-1 = conditions: 10 μM, Huh-7 cells; cited from earlier work
SARS-CoV-2 [7] = conditions: 10 μM, Huh-7 cells; cited from earlier work
MERS-CoV = conditions: 10 μM, Huh-7 cells; cited from earlier work
[8] = Severe acute respiratory syndrome coronavirus 2, Vero, Round 1, 24 h, 1-h preincubation, read-out: IC50
[9] = Severe acute respiratory syndrome coronavirus 2, Vero, Round 2, 24 h, 1-h preincubation, read-out: IC50
[10] = uninfected MRC5 lung fibroblast cells
[11] = MRC5 cells infected with HCoV-229E, MOI 0.01, 96 h, read-out: EC50
[12] = Betacoronavirus 1, MRC5 cells infected with HCoV-OC43, MOI 0.01, 120 h, read-out: EC50
[13] = Severe acute respiratory syndrome coronavirus 2, Vero, 24 h, Table 2 test (average reversal score predicted compounds)
[14] = Severe acute respiratory syndrome coronavirus 2, Vero, Round 1, 24 h, 1-h preincubation
[15] = Severe acute respiratory syndrome coronavirus 2, Vero, Round 2, 24 h, 1-h preincubation

N[C@@H]1CCCN(c2c(/C=C3\SC(=O)NC3=O)cccc2-c2ccccc2)C1 [AZD-1208]
IC50 (SARS-CoV-2 [1]; Table 2 test (average reversal score predicted compounds), read-out: IC50): 27.3 µM | CC50 (Vero cells): > 50 µM

CC(C)C[C@H](NC(=O)[C@H](Cc1ccccc1)NC(=O)c1cnccn1)B(O)O [Bortezomib]
Clinical Exposure [2]: 0.29 µM | Clinical Exposure ([2]; iv): approximately 580 nM | IC50 (SARS-CoV-2 [1]; [8]): 1.39 µM | IC50 (SARS-CoV-2 [1]; [9]): 3.42 µM | anti-SARS-CoV-2 activity (in words) (SARS-CoV-2 [1]): showed efficacy in controlling viral load | CC50 at 96 h [3, 10]: 0.536 µM | CC50 at 120 h [3, 10]: 0.591 µM | CC50 at 24 h ([4]; CC50, Round 1): > 50 µM | CC50 at 24 h ([4]; CC50, Round 2): > 50 µM | EC50 (HCoV-229E; [11]): 0.252 µM | activity against HCoV-229E (in words) (HCoV-229E): no activity | activity against HCoV-229E (in words) (HCoV-229E; listed as bortezomib): did not find bortezomib to be effective | EC50 (HCoV-OC43; [12]): 0.666 µM | activity against HCoV-OC43 (in words) (HCoV-OC43): no activity | activity against HCoV-OC43 (in words) (HCoV-OC43; listed as bortezomib): did not find bortezomib to be effective

CCN(CC)CCCC(C)Nc1ccnc2cc(Cl)ccc12 (stereo not shown) [Chloroquine]
IC50 (SARS-CoV-2 [1]; [13]): 11.3 µM | IC50 (SARS-CoV-2 [1]; [14]): 12 µM | IC50 (SARS-CoV-2 [1]; [15]): 9.8 µM | CC50 (in vitro; CC50, Round 1): 128 µM | CC50 (in vitro; CC50, Round 2): > 150 µM | CC50 (in vitro; CC50, Table 2 test): > 150 µM

Cc1nc(Nc2ncc(C(=O)Nc3c(C)cccc3Cl)s2)cc(N2CCN(CCO)CC2)n1 [Dasatinib]
IC50 (SARS-CoV-2 [1]; [8]): 19.7 µM | CC50 at 24 h ([4]; CC50, Round 1): 13.2 µM

CC(C)c1cc(-c2n[nH]c(=O)n2-c2ccc3c(ccn3C)c2)c(O)cc1O [Ganetespib]
IC50 (SARS-CoV-2 [1]; [9]): 35.5 µM | anti-SARS-CoV-2 activity (in words) (SARS-CoV-2 [1]): no activity; also recorded: neither tanespimycin nor a second generation HSP90 inhibitor ganetespib exhibited anti-viral efficacy | CC50 at 24 h ([4]; CC50, Round 2): 28.9 µM

COC(=O)C[C@](O)(CCCC(C)(C)O)C(=O)O[C@@H]1C(OC)=C[C@]23CCCN2CCc2cc4c(cc2[C@H]13)OCO4 [Homoharringtonine]
average EC50/IC50 (SARS-CoV-2 [1]; SARS-CoV-2, Vero cells, average of the rounds): under 300 nM | IC50 (SARS-CoV-2 [1]; [14]): 0.16 µM | IC50 (SARS-CoV-2 [1]; [15]): 0.26 µM | anti-SARS-CoV-2 activity (in words) (SARS-CoV-2 [1]): highly effective | CC50 at 96 h [3, 10]: 0.205 µM | CC50 at 120 h [3, 10]: 0.167 µM | Clinical Exposure [5]: 0.046 µM | CC50 at 24 h ([4]; CC50, Round 1): 2.14 µM | CC50 at 24 h ([4]; CC50, Round 2): 6.22 µM | EC50 (HCoV-229E; MRC5): < 0.1 µM | EC50 (HCoV-229E; [11]): 0.0511 µM | activity against HCoV-229E (in words) (HCoV-229E): highly effective | EC50 (HCoV-OC43; Betacoronavirus 1, OC43, MRC5): < 0.1 µM | EC50 (HCoV-OC43; [12]): 0.126 µM | activity against HCoV-OC43 (in words) (HCoV-OC43): highly effective

CC(C)C[C@H](NC(=O)CNC(=O)c1cc(Cl)ccc1Cl)B(O)O [Ixazomib]
IC50 (SARS-CoV-2 [1]; [9]): 11.7 µM | anti-SARS-CoV-2 activity (in words) (SARS-CoV-2 [1]): showed efficacy in controlling viral load | CC50 at 24 h ([4]; CC50, Round 2): > 50 µM

CCOC(=O)C1=C(C)NC(C)=C(C(=O)OCC)C1c1ccccc1/C=C/C(=O)OC(C)(C)C [Lacidipine]
Clinical Exposure [2]: 0.003 to 0.013 µM | IC50 (SARS-CoV-2 [1]; [8]): 14.9 µM | CC50 at 24 h ([4]; CC50, Round 1): 20.2 µM

CC[C@@H](C(N)=O)N1CCCC1=O [Levetiracetam]
IC50 (SARS-CoV-2 [1]; [13]): > 50 µM | anti-SARS-CoV-2 activity (in words) (SARS-CoV-2 [1]): no anti-viral activity | anti-SARS-CoV-2 activity (in words) (SARS-CoV-2 [1]; listed as levetiracetam): did not show meaningful anti-SARS-CoV-2 activity; also recorded: did not result in a meaningful effect on viral production | CC50 at 24 h ([4]; CC50, Table 2 test): > 50 µM

Cc1cccc(C)c1OCC(=O)N[C@@H](Cc1ccccc1)[C@@H](O)C[C@H](Cc1ccccc1)NC(=O)[C@H](C(C)C)N1CCCNC1=O [Lopinavir]
IC50 (SARS-CoV-2 [1]; [13]): 12.6 µM | IC50 (SARS-CoV-2 [1]; [15]): 13.5 µM | CC50 at 24 h ([4]; CC50, Round 2): > 50 µM | CC50 at 24 h ([4]; CC50, Table 2 test): > 50 µM

Cc1ccc(Cl)c(Nc2ccccc2C(=O)O)c1Cl [Meclofenamic acid sodium salt]
CC50 at 24 h ([4]; CC50, Table 2 test): > 50 µM

C#CCC(Cc1cnc2nc(N)nc(N)c2n1)c1ccc(C(=O)N[C@@H](CCC(=O)O)C(=O)O)cc1 (stereo partly shown) [Pralatrexate]
IC50 (SARS-CoV-2 [6]): 0.008 µM

CCC(CC)COC(=O)[C@H](C)N[P@](=O)(OC[C@H]1O[C@@](C#N)(c2ccc3c(N)ncnn23)[C@H](O)[C@@H]1O)Oc1ccccc1 [Remdesivir]
IC50 (SARS-CoV-2 [1]; [13]): 8.58 µM | IC50 (SARS-CoV-2 [1]; [14]): 12.1 µM | IC50 (SARS-CoV-2 [1]; [15]): 7.45 µM | CC50 at 24 h ([4]; CC50, Round 1): > 50 µM | CC50 at 24 h ([4]; CC50, Round 2): > 50 µM | CC50 at 24 h ([4]; CC50, Table 2 test): > 50 µM

O=C(O)c1ccccc1Nc1cccc(OCc2ccc3ccccc3n2)c1 [SR-2640 hydrochloride]
IC50 (SARS-CoV-2 [1]; [13]): 24.2 µM | anti-SARS-CoV-2 activity (in words) (SARS-CoV-2 [1]): did not result in a meaningful effect on viral production | CC50 at 24 h ([4]; CC50, Table 2 test): > 50 µM

N[C@@H](CC(=O)N1CCn2c(nnc2C(F)(F)F)C1)Cc1cc(F)c(F)cc1F [Sitagliptin]
IC50 (SARS-CoV-2 [1]; Severe acute respiratory syndrome coronavirus 2, Vero, 24 h, Table 2 test (average reversal score predicted compounds), read-out: IC50): > 50 µM | anti-SARS-CoV-2 activity (in words) (SARS-CoV-2 [1]): did not show meaningful anti-SARS-CoV-2 activity | CC50 at 24 h ([4]; CC50, Table 2 test): > 50 µM

C=CCNC1=C2C[C@@H](C)C[C@H](OC)[C@H](O)[C@@H](C)/C=C(\C)[C@H](OC(N)=O)[C@@H](OC)/C=C\C=C(/C)C(=O)NC(=CC1=O)C2=O [Tanespimycin]
inhibition of viral activities of SARS-CoV-1 (SARS-CoV-1): effectively inhibited | inhibition of viral activities of SARS-CoV-2 (SARS-CoV-2 [7]): effectively inhibited | IC50 (SARS-CoV-2 [1]; [9]): 31.3 µM | anti-SARS-CoV-2 activity (in words) (SARS-CoV-2 [1]): no activity | anti-SARS-CoV-2 activity (in words) (SARS-CoV-2 [1]; listed as tanespimycin): neither tanespimycin nor a second generation HSP90 inhibitor ganetespib exhibited anti-viral efficacy | CC50 at 96 h [3]: 0.182 µM | CC50 at 120 h [3]: 0.253 µM | CC50 at 24 h ([4]; CC50, Round 2): > 50 µM | inhibition of viral activities of MERS-CoV (MERS-CoV): effectively inhibited | EC50 (HCoV-229E; MRC5): < 0.001 µM | EC50 (HCoV-229E; MRC5, 96 h): 0.0036 µM | activity against HCoV-229E (in words) (HCoV-229E): effective | activity against HCoV-229E (in words) (HCoV-229E; listed as tanespimycin): highly potent | EC50 (HCoV-OC43; Betacoronavirus 1, OC43, MRC5): < 0.001 µM | EC50 (HCoV-OC43; [12]): 0.0019 µM | activity against HCoV-OC43 (in words) (HCoV-OC43): effective | activity against HCoV-OC43 (in words) (HCoV-OC43; listed as tanespimycin): highly potent

CC(=O)Nc1cccc(-n2c(=O)n(C3CC3)c(=O)c3c(Nc4ccc(I)cc4F)n(C)c(=O)c(C)c32)c1 [Trametinib]
IC50 (SARS-CoV-2 [1]; [8]): 15 µM | Clinical Exposure [5]: 0.045 µM | CC50 at 24 h ([4]; CC50, Round 1): > 50 µM
